Activity calls are given as the source filed them. No cut-off for these calls is given here.
Legend:
D(1B) dopamine receptor = D(1B) dopamine receptor (Homo sapiens, UniProt P21918); test: Displacement of [3H]SCH23390 from human dopamine D5 receptor transfected in HEK293 cells after 2 hrs by scintillation counting analysis; assay type: cell-based
D(4) dopamine receptor = target: T1, D(4) dopamine receptor (Homo sapiens, UniProt P21917); test: Displacement of [3H]spiperone from human dopamine D4 receptor transfected in HEK293 cells after 2 hrs by scintillation counting analysis; assay type: cell-based
T1 sequence (P21917 whole entry): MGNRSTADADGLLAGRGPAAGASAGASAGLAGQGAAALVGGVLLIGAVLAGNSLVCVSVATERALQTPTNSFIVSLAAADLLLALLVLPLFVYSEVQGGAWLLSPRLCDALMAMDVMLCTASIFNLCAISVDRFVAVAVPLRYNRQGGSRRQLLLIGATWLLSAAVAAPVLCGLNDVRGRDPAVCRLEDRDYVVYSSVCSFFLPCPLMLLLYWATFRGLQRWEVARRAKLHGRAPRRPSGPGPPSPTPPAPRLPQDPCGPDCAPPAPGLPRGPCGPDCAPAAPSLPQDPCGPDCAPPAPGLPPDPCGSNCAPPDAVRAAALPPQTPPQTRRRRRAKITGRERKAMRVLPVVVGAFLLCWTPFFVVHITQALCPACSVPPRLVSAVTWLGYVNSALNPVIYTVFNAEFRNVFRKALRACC

D(3) dopamine receptor = D(3) dopamine receptor (Homo sapiens, UniProt P35462); test: Displacement of [3H]spiperone from human dopamine D3 receptor transfected in HEK293 cells after 2 hrs by scintillation counting analysis; assay type: cell-based
D(2) dopamine receptor [1] = target: T2, D(2) dopamine receptor (Homo sapiens, UniProt P14416); test: Displacement of [3H]spiperone from low-affinity state of human dopamine D2S receptor transfected in HEK293 cells after 2 hrs by scintillation counting analysis; assay type: cell-based
D(2) dopamine receptor [2] = target: T2, D(2) dopamine receptor; test: Displacement of [3H]spiperone from low-affinity state of human dopamine D2L receptor transfected in HEK293 cells after 2 hrs by scintillation counting analysis; assay type: cell-based
D(2) dopamine receptor [3] = target: T2, D(2) dopamine receptor; test: Displacement of [3H]spiperone from high-affinity state of human dopamine D2L receptor transfected in HEK293 cells after 2 hrs by scintillation counting analysis; assay type: cell-based
D(1A) dopamine receptor = D(1A) dopamine receptor (Homo sapiens, UniProt P21728); test: Displacement of [3H]SCH23390 from human dopamine D1 receptor transfected in HEK293 cells after 2 hrs by scintillation counting analysis; assay type: cell-based
Homo sapiens = species on record: Homo sapiens; test: Selectivity ratio of Ki for human dopamine D1-like receptor to Ki for human dopamine D2-like receptor
D(2) dopamine receptor [4] = target: T2, D(2) dopamine receptor; test: Agonist activity at human dopamine D2L receptor expressed in HEK293 cells assessed as inhibition of forskolin-induced cAMP accumulation after 30 mins by LANCE assay; assay type: functional, cell-based

Sequence of D(1A) dopamine receptor (P21728 whole entry): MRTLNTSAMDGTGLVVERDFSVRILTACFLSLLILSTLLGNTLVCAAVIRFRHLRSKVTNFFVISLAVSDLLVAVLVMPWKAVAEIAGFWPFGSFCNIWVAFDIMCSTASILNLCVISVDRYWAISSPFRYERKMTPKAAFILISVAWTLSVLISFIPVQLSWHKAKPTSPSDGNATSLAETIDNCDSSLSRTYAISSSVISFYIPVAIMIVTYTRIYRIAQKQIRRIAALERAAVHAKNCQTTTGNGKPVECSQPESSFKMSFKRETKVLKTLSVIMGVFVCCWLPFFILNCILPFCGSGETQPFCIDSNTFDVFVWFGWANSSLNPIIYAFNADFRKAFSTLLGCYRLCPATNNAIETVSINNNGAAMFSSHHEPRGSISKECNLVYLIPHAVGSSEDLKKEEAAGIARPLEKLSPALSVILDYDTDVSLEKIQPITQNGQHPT
Sequence of D(3) dopamine receptor (P35462 whole entry): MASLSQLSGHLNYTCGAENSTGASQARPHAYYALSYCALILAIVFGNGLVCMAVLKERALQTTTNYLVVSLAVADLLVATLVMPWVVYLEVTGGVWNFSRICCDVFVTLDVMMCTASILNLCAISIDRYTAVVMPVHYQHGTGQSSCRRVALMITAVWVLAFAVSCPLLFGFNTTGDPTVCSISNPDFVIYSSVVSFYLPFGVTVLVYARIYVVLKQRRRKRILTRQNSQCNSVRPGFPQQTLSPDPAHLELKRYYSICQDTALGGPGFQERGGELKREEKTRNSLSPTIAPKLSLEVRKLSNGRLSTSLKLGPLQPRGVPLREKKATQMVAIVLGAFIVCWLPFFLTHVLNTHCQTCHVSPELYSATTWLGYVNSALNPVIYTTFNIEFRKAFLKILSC
T2 sequence (P14416 whole entry): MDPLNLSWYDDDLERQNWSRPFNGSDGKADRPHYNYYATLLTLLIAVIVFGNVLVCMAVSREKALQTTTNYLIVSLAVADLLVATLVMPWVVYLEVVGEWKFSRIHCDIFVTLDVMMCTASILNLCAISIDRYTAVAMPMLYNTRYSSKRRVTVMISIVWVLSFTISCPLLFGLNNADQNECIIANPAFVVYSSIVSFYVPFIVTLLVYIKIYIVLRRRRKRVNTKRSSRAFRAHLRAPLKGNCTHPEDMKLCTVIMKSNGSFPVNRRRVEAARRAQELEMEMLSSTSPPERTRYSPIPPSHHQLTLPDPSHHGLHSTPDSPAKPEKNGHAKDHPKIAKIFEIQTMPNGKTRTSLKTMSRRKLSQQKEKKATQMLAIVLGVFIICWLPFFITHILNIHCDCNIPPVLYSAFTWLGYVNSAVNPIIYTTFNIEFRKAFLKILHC
Sequence of D(1B) dopamine receptor (P21918 whole entry): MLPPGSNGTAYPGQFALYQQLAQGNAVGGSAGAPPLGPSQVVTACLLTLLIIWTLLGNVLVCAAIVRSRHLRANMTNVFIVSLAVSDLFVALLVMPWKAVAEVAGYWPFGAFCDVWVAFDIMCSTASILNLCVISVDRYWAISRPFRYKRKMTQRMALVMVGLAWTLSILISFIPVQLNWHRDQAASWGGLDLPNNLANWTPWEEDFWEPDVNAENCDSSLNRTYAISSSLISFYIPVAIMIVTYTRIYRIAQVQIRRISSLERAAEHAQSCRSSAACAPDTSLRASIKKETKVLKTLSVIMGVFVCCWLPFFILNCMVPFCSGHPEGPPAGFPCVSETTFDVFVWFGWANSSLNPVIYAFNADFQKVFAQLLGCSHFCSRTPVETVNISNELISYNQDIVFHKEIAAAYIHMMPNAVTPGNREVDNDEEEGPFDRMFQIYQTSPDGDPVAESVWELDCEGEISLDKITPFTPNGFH

Row | SMILES | Ki (D(1B) dopamine receptor; read-out: Ki) [µM] | Ki (D(1B) dopamine receptor; read-out: pKi (converted)) [µM] | Ki (D(4) dopamine receptor; read-out: Ki) [nM] | Ki (D(3) dopamine receptor; read-out: Ki) [nM] | inhibition (D(2) dopamine receptor [1]) | inhibition (D(2) dopamine receptor [2]) | inhibition (D(2) dopamine receptor [3]) | Ki (D(1A) dopamine receptor; read-out: Ki) [µM] | Ratio Ki (Homo sapiens) | EC50 (D(2) dopamine receptor [4]) [nM] | Ki (D(2) dopamine receptor [1]; read-out: Ki) [nM] | Ki (D(2) dopamine receptor [1]; read-out: pKi (converted)) [nM] | Ki (D(2) dopamine receptor [2]; read-out: Ki) [nM] | Ki (D(2) dopamine receptor [2]; read-out: pKi (converted)) [nM] | Ki (D(2) dopamine receptor [3]; read-out: Ki) [nM] | Ki (D(1A) dopamine receptor; read-out: pKi (converted)) [µM] | Ki (D(3) dopamine receptor; read-out: pKi (converted)) [nM] | Ki (D(2) dopamine receptor [3]; read-out: pKi (converted)) [nM] | Ki (D(4) dopamine receptor; read-out: pKi (converted)) [nM] | inhibition (D(1A) dopamine receptor)
1 | Oc1ccc2c(c1)O[C@@H](CN1CCN(c3ccc(I)cc3)CC1)CC2 | 17.8 | 17.4 | 14.3 | 24.2 | inactive | inactive | inactive | 46.5 | > 100 | – | – | – | – | – | – | – | – | – | – | –
2 | Oc1ccc2c(c1)O[C@@H](CNCc1ccc(OCCCCF)cc1)CC2 | 2.89 | 2.45 | 32.1 | 12.1 | – | – | – | 6.91 | > 100 | 0.398 | 92.7 | 91.2 | 80.5 | 61.7 | 5.6 | 6.61 | – | – | – | –
3 | Oc1ccc2c(c1)O[C@@H](CNCc1ccccc1OCCCCF)CC2 | – | – | – | 33 | – | – | – | 1.16 | > 100 | – | 452 | – | 156 | 145 | – | – | – | – | – | –
4 | Oc1ccc2c(c1)O[C@@H](CNCCN1CCN(c3ccc(I)cc3)CC1)CC2 | 3.48 | – | 9.7 | 23 | – | – | – | 3.96 | > 100 | 1.58 | 131 | – | 80.5 | 66.1 | – | 3.89 | 21.9 | – | – | –
5 | CCCCCCNC[C@H]1CCc2ccc(O)cc2O1 | 27.7 | 2.75 | 5.7 | 547 | – | – | – | 10.9 | – | 0.0501 | – | – | – | – | – | 10.5 | 19.1 | – | 5.01 | –

Compounds with a lower Ki (D(3) dopamine receptor; read-out: Ki), results first:

Row | Ki (D(1B) dopamine receptor; read-out: Ki) [µM] | Ki (D(1B) dopamine receptor; read-out: pKi (converted)) [µM] | Ki (D(4) dopamine receptor; read-out: Ki) [nM] | Ki (D(3) dopamine receptor; read-out: Ki) [nM] | inhibition (D(2) dopamine receptor [1]) | inhibition (D(2) dopamine receptor [2]) | inhibition (D(2) dopamine receptor [3]) | Ki (D(1A) dopamine receptor; read-out: Ki) [µM] | Ratio Ki (Homo sapiens) | EC50 (D(2) dopamine receptor [4]) [nM] | Ki (D(2) dopamine receptor [1]; read-out: Ki) [nM] | Ki (D(2) dopamine receptor [1]; read-out: pKi (converted)) [nM] | Ki (D(2) dopamine receptor [2]; read-out: Ki) [nM] | Ki (D(2) dopamine receptor [2]; read-out: pKi (converted)) [nM] | Ki (D(2) dopamine receptor [3]; read-out: Ki) [nM] | Ki (D(1A) dopamine receptor; read-out: pKi (converted)) [µM] | Ki (D(3) dopamine receptor; read-out: pKi (converted)) [nM] | Ki (D(2) dopamine receptor [3]; read-out: pKi (converted)) [nM] | Ki (D(4) dopamine receptor; read-out: pKi (converted)) [nM] | inhibition (D(1A) dopamine receptor) | SMILES
6 | 4.64 | 4.57 | 0.97 | 7.87 | – | – | – | 4.29 | > 100 | 0.0316 | 30.8 | 28.8 | 72.9 | 33.9 | 2.06 | 3.89 | 2.88 | 1.02 | – | – | Oc1ccc2c(c1)O[C@@H](CNCc1cccc(I)c1)CC2
7 | 9.7 | – | 27.7 | 10 | – | – | – | – | > 100 | 0.158 | 252 | 234 | 235 | 219 | 6.67 | – | 8.71 | 5.01 | 22.9 | inactive | Oc1ccc2c(c1)O[C@@H](CNCCN1CCN(c3ccc(OCCF)cc3)CC1)CC2

Source: ChEMBL document CHEMBL3112461, “Synthesis and characterization of a novel series of agonist compounds as potential radiopharmaceuticals for imaging dopamine D₂/₃ receptors in their high-affinity state” (J Med Chem, 2014)
